Measured values from patent publication US20200215233A1, “ANTIMICROBIAL COATING” (Boulos & Cooper Pharmaceuticals Pty Ltd, priority 2017, published 2020).

Experiments:
[1] = tested on: Staphylococcus aureus (ATCC 29213) (MSSA); test: Determination of the minimum inhibitory concentration (MSSA); type: cell-based; settings: 24 h at 37° C., lowest concentration at which greater than 90% inhibition of bacterial growth was observed
Description: (§1) Three bacterial strains—two Gram-positive bacteria: Staphylococcus aureus (ATCC 29213) (MSSA) and methicillin resistant-S. aureus (MRSA) (ATCC 43300); and a Gram-negative Pseudomonas aeruginosa (ATCC 27853) were used in this study. Bacterial stocks (stored at −80° C. in nutrient broth with 15% glycerol) were streaked onto nutrient agar (Oxoid, Basingstoke, UK) plates for use as the working stock. From the stock an overnight bacterial culture grown in nutrient broth was diluted 1:100 into specific growth media, including tryptic soya broth for S. aureus and Luria-Bertani broth for P. aeruginosa. The final concentration of bacteria was made up to 1×10^5 cfu/mL for the inhibition assays. BCP3 was suspended in respective bacterial media to afford 5 mg/mL suspension. The stock suspension was then twice and ten times diluted to finally obtain concentrations ranging from 8×10^−4-5 mg/mL. Aliquots of 20 μL of each concentration were then added in quadruplicate to wells containing 80 μL of 1×10^5 cfu/mL bacterial solutions in a 96 well plate format for final well concentrations of 1.6×10^−4-1 mg/mL of BCP3. […] After 24 h, 100 μL from each well was transferred into a TOPS 96 well plate (Nunc) and the optical density was measured at 600 nm using a BioTek plate reader. The inhibition of bacterial growth was determined relative to the control (%). […]

[2] = tested on: methicillin resistant-S. aureus (MRSA) (ATCC 43300); test: Determination of the minimum inhibitory concentration (MRSA); type: cell-based; settings: Staphylococcus aureus, 24 h at 37° C., lowest concentration at which greater than 90% inhibition of bacterial growth was observed
Description: as §1

[3] = tested on: Pseudomonas aeruginosa (ATCC 27853); test: Determination of the minimum inhibitory concentration (P. aeruginosa); type: cell-based
Description: as §1

L929 cells = test: Determination of minimal BCP3 cytotoxic concentration (MTS assay); type: cell-based
Description: BCP3 was sterilized via incubation in 80% ethanol in a sterile glass vial for 1 h prior to being vacuum dried at 120° C. for 5 h (0.2 mbar). Subsequently BCP3 was suspended in complete minimum essential medium (MEM, containing 10% (v/v) FBS and 1% (v/v) non-essential amino acids) to afford a 5 mg/mL suspension. The stock suspension was then twice and ten times diluted to finally obtain concentrations ranging from 8×10^−4-5 mg/mL. Aliquots of 20 μL of each concentration were then added in quadruplicate to wells previously seeded with L929 cells containing 80 μL of complete MEM (18,000 cells per well, 16 h) in a 96 well plate format for final well concentrations of 1.6×10^−4-1 mg/mL. Additional controls were added to wells containing pre-seeded cells; medium alone, 5%, and 10% (v/v) dimethylsulfoxide (DMSO, Sigma) in medium. The plate was subsequently incubated for 21 h (37° C., 5% CO2). An 3-(4,5-dimethylthiazol-2-yl)-5(3-carboxymethoxyphenyl)-2-(4-sulfophenyl)-2H-tetrazolium (MTS) assay was then utilized to determine cell viability based on metabolic activity of cells. Stock solutions of 4 mM MTS (Promega) in PBS and 3 mM of phenazine methosulfate (PMS, Sigma) in PBS were used to make up a mixture of MTS and PMS reagent. A working assay reagent solution was made up by addition of 2 mL of MTS and 100 μL of PMS stock solutions per 10 mL of complete medium. Media was removed from the sample and control wells and washed with 120 μL of fresh medium; subsequently 100 μL of the assay reagent solution was added to wells then incubated for 3 h at 37° C., 5% CO2. For colorimetric analysis, plates were read in a BioTek plate reader at wavelengths 490 nm and 655 nm. The difference in readings at the two wavelengths was used to calculate cell attachment compared to controls.

[4] = Solubility of BCP3 in water and base; type: physicochemical

MIC [1]: 15.6 µg/mL
MIC [2]: 15.6 µg/mL
MIC ([3]; Pseudomonas aeruginosa, ATCC27853, P. aeruginosa, 24 h at 37° C., lowest concentration at which greater than 90% inhibition of bacterial growth was observed): > 1000 µg/mL
solubility in the presence of bases ([4]; in the presence of bases such as NaOH): highly soluble
solubility in water ([4]; water): minimally soluble
Compound: O=C(O)c1ccc(/C=C/c2cc(/C=C/c3ccc(C(=O)O)cc3)c(/C=C/c3ccc(C(=O)O)cc3)cc2/C=C/c2ccc(C(=O)O)cc2)cc1 [Formula E]
maximum inhibition of P. aeruginosa growth ([3]; at 1 mg/mL BCP3, 24 h): 32%
cytotoxicity (L929 cells; L929 cells, up to 1 mg/mL): non-cytotoxic
L929 cell viability (L929 cells; at 1 mg/mL BCP3, 21 h, compared to TOPS control): 85%
L929 cell viability (L929 cells; at all concentrations, 1.6×10^−4-1 mg/mL, 21 h): above 70%
